Measurements: US6828315B1, “1-Amino triazoloc4,3-a! quinazoline-5-ones and/or -5-thiones inhibiting phosphodiesterase IV” (Warner-Lambert LLC, priority 1999, dated 2004)

What was measured:
[1] = biological target: type 4 phosphodiesterases (PDE4); assay: Inhibition of the phosphodiesterase (PDE4), enzymatic preparation from line U937; type: biochemical; conditions: PDE4 from cytosolic preparation of human cell line U937
Description: The capacity of the formula (I) compounds of the invention to inhibit the cyclic nucleotide phosphodiesterases is evaluated by their Cl50 measurement (necessary concentration to inhibit 50% of enzymatic activity).
The type 4 phosphodiesterases are obtained from a cytosolic preparation extracted from the human origin cellular line U937 according to a method adapted from T. J. Torphy and al., 1992, J.Pharm.Exp. Ther. 263: 1195-1205
The other classes of phosphodiesterases are obtained after partial purification FPLC on Mono Q column. (anion exchange column) according to a method adapted from Lavan B. E., Lakey T., Houslay M. D. Biochemical Pharmacology, 1989, 38(22), 4123-4136., and from Silver P. J and al., 1988, Eur.J. Pharmacol. 150: 85-94, either, from human origin cellular lines for PDE 1 (monocytar line TPH1) and PDE5 (line MCF7 issued from an adenocarcinoma), or from dog aorta for PDE 3, or for the human PDE3A, from gene cloning in insect cells SF21 in baculovirus, according to a method adapted from Luckow, V. A. and al., 1991 in Recombinant DNA Technology&Applications.,eds. Prokop, Bajpai,R. K.&Ho,C. S., pp97-152. The enzymatic activity measurement of the different PDE classes, and in particular the PDE 4, is performed according to a method adapted from W. J. Thompson and al. 1979, Advances in Cyclic Nucleotide Research, Vol. 10: 69-92, ed. G. Brooker and al. Raven Press, NY.
For the Cl50 determination, the enzymatic activity is measured in the presence of inhibitor within concentration margins of 0.1 to 100 μM.
The following table illustrates the PDE4 inhibitory activity from enzymatic preparation obtained from the line U937.

| SMILES | IC50 [1] | melting point |
| --- | --- | --- |
| O=c1c2cc(Cl)ccc2n2c(N3CCCCCC3)nnc2n1CC=Cc1ccccc1 [Compound 1, 1-(Azepan-1-yl)-7-chloro-4-(3-phenylallyl)-4H-[1,2,4]triazolo[4,3-a]quinazolin-5-one] | 54 nM | – |
| O=c1c2cc(Cl)ccc2n2c(N3CCCCCC3)nnc2n1Cc1ccc(Cl)cc1 [Compound 11, 1-(azepan-1-yl)-7-chloro-4-(4-chlorobenzyl)-4H-[1,2,4]triazolo[4,3-a]quinazolin-5-one] | 80 nM | 166 °C |
| O=c1c2cc(Cl)ccc2n2c(N3CCCCCC3)nnc2n1Cc1ccc(F)cc1 [Compound 13, 1-(azepan-1-yl)-7-chloro-4-(4-fluorobenzyl)-4H-[1,2,4]triazolo[4,3-a]quinazolin-5-one] | 60 nM | 150 °C |
| COc1ccc(Cn2c(=O)c3cc(Cl)ccc3n3c(N4CCCCCC4)nnc23)cc1OC [Compound 20, 1-(azepan-1-yl)-7-chloro-4-(3,4-dimethoxybenzyl)-4H-[1,2,4]triazolo[4,3-a]quinazolin-5-one] | 40 nM | 172 °C |
| O=c1c2cc(Cl)ccc2n2c(N3CCCCCC3)nnc2n1Cc1cccnc1 [Compound 22, 1-(azepan-1-yl)-7-chloro-4-(3-pyridylmethyl)-4H-[1,2,4]triazolo[4,3-a]quinazolin-5-one] | 410 nM | 155 °C |
| O=c1c2cc(Br)ccc2n2c(N3CCCCCC3)nnc2n1Cc1ccc(Cl)cc1 [Compound 32, 1-(azepan-1-yl)-7-bromo-4-(4-chloro-benzyl)-4H-[1,2,4]triazolo[4,3-a]quinazolin-5-one] | 53 nM | 179 °C |
| N#Cc1ccc(Cn2c(=O)c3cc(Br)ccc3n3c(N4CCCCCC4)nnc23)cc1 [Compound 34, 4-(1-Azepan-1-yl-7-bromo-5-oxo-5H-[1,2,4]triazolo[4,3-a]quinazolin-4-ylmethyl)-benzonitrile] | 56 nM | 190 °C |
| O=c1c2cc(Br)ccc2n2c(N3CCCCCC3)nnc2n1CC=Cc1ccccc1 [Compound 37, 1-(azepan-1-yl)-7-bromo-4-(3-phenylallyl)-4H-[1,2,4]triazolo[4,3-a]quinazolin-5-one] | 15 nM | 155 °C |
| O=c1c2cc(Br)ccc2n2c(N3CCCCCC3)nnc2n1C/C=C/c1cccnc1 [Compound 40, 1-Azepan-1-yl-7-bromo-4-((E)-3-pyridin-3-yl-allyl)-4H-[1,2,4]triazolo[4,3-a]quinazolin-5-one] | 14 nM | 185 °C |
| O=c1c2cc(Br)ccc2n2c(N3CCCCCC3)nnc2n1CC=Cc1ccncc1 [Compound 41, 1-Azepan-1-yl-7-bromo-4-(3-pyridin-4-yl-allyl)-4H-[1,2,4]triazolo[4,3-a]quinazolin-5-one] | 18 nM | 216 °C |
| Cc1ccc(Cn2c(=O)c3cc(Br)ccc3n3c(N4CCCC4)nnc23)cc1 [Compound 42, 7-Bromo-4-(4-methyl-benzyl)-1-pyrrolidin-1-yl-4H-[1,2,4]triazolo[4,3-a]quinazolin-5-one] | 24 nM | 215 °C |
| O=c1c2cc(Br)ccc2n2c(N3CCCCC3)nnc2n1CC=Cc1ccccc1 [Compound 76, 1-(piperidin-1-yl)-7-bromo-4-(3-phenylallyl)-4H-[1,2,4]triazolo[4,3-a]quinazolin-5-one] | 70 nM | – |
| Cc1ccc2c(c1)c(=O)n(Cc1ccc(CC(=O)O)cc1)c1nnc(N(C)C)n21 [Compound 102, [4-(1-Dimethylamino-7-methyl-5-oxo-5H-[1,2,4]triazolo[4,3-a]quinazolin-4-ylmethyl)-phenyl]-acetic acid] | 60 nM | – |
| O=c1c2cc(Br)ccc2n2c(N3CCCC3)nnc2n1Cc1ccccc1 [Compound 164, 4-benzyl-7-bromo-1-(pyrrolidin-1-yl)-4H-[1,2,4]triazolo[4,3-a]-quinazolin-5-one] | 90 nM | – |
| Cn1c(=O)c2cc(Cl)ccc2n2c(N3CC4(C)CC3CC(C)(C)C4)nnc12 (stereo not shown) [Compound 211, 7-chloro-4-methyl-1-(1,3,3-trimethyl-6-azabicyclo[3,2,1]oct-6yl)-4H-[1,2,4]triazolo[4,3-a]-quinazolin-5-one] | – | 165 °C |
| Cn1c(=O)c2cc(F)ccc2n2c(N3CCCCCC3)nnc12 [Compound 212, 1-(azepan-1-yl)-7-fluoro-4-methyl-4H-[1,2,4]triazolo[4,3-a]-quinazolin-5-one] | – | 136 °C |
| Cn1c(=O)c2cc(I)ccc2n2c(N3CCCCCC3)nnc12 [Compound 213, 1-(azepan-1-yl)-7-iodo-4-methyl-4H-[1,2,4]triazolo[4,3-a]-quinazolin-5-one] | – | 206 °C |
| Nc1ccc(Cn2c(=O)c3cc(Br)ccc3n3c(N4CCCC4)nnc23)cc1 [Compound 218, 4-(4-Amino-benzyl)-7-bromo-1-pyrrolidin-1-yl-4H-[1,2,4]triazolo[4,3-a]quinazolin-5-one] | 48 nM | – |
| Nc1ccc2c(c1)c(=O)n(C/C=C/c1ccccc1)c1nnc(N3CCCC3)n21 [Compound 223, 7-Amino-4-((E)-3-phenyl-allyl)-1-pyrrolidin-1-yl-4H-[1,2,4]triazolo[4,3-a]quinazolin-5-one] | 12 nM | – |
| Nc1ccc2c(c1)c(=O)n(Cc1ccccc1)c1nnc(N3CCCC3)n21 [Compound 225, 7-Amino-4-benzyl-1-pyrrolidin-1-yl-4H-[1,2,4]triazolo[4,3-a]quinazolin-5-one] | – | 230 °C |
| N#Cc1ccc(Cn2c(=O)c3cc(N)ccc3n3c(N4CCCC4)nnc23)cc1 [Compound 226, 4-(7-Amino-5-oxo-1-pyrrolidin-1-yl-5H-[1,2,4]triazolo[4,3-a]quinazolin-4-ylmethyl)-benzonitrile] | – | 152 °C |
| CN(C)c1nnc2n(Cc3ccc(C#N)cc3)c(=O)c3cc(N)ccc3n12 [Compound 228, 4-(7-Amino-1-dimethylamino-5-oxo-5H-[1,2,4]triazolo[4,3-a]quinazolin-4-ylmethyl)-benzonitrile] | – | 163 °C |
| CC(C)Nc1ccc2c(c1)c(=O)n(Cc1ccccc1)c1nnc(N3CCCC3)n21 [Compound 234, 4-Benzyl-7-isopropylamino-1-pyrrolidin-1-yl-4H-[1,2,4]triazolo[4,3-a]quinazolin-5-one] | 2690 nM | – |
| COC(=O)Cc1ccc(Cn2c(=O)c3cc(Br)ccc3n3c(N4CCCC4)nnc23)cc1 [Compound 239, [4-(7-Bromo-5-oxo-1-pyrrolidin-1-yl-5H-[1,2,4]triazolo[4,3-a]quinazolin-4-ylmethyl)-phenyl]-acetic acid methyl ester] | 5 nM | – |
| CNC(=O)Cc1ccc(Cn2c(=O)c3cc(Br)ccc3n3c(N4CCCC4)nnc23)cc1 [Compound 240, 2-[4-(7-Bromo-5-oxo-1-pyrrolidin-1-yl-5H-[1,2,4]triazolo[4,3-a]quinazolin-4-ylmethyl)-phenyl]-N-methyl-acetamide] | 13 nM | – |
| CN(C)c1nnc2n(Cc3ccc(CC(N)=O)cc3)c(=O)c3cc(Br)ccc3n12 [Compound 241, 2-[4-(7-Bromo-1-dimethylamino-5-oxo-5H-[1,2,4]triazolo[4,3-a]quinazolin-4-ylmethyl)-phenyl]-acetamide] | – | 268 °C |
| CN(C)c1nnc2n(Cc3ccc(C#N)cc3)c(=S)c3cc(Br)ccc3n12 [Compound 245, 4-(7-Bromo-1-dimethylamino-5-thioxo-5H-[1,2,4]triazolo[4,3-a]quinazolin-4-ylmethyl)-benzonitrile] | – | 276 °C |
